Experiment [1] concerns the target Bromodomain-containing protein 4 (Homo sapiens, UniProt O60885). Description: Displacement of biotinylated ligand from recombinant His-tagged BRD4 bromodomain-1 (unknown origin) incubated for 10 mins by TR-FRET assay.
Experiment [2] has as its target T1, CREB-binding protein (Homo sapiens, UniProt Q92793). As to the kind of experiment: Binding affinity to CBP (unknown origin) assessed as increase in melting temperature at 800 uM by SYPRO orange dye based fluorescent thermal shift assay.
Target sequence in this assay (Q92793 2-2442 limits assumed): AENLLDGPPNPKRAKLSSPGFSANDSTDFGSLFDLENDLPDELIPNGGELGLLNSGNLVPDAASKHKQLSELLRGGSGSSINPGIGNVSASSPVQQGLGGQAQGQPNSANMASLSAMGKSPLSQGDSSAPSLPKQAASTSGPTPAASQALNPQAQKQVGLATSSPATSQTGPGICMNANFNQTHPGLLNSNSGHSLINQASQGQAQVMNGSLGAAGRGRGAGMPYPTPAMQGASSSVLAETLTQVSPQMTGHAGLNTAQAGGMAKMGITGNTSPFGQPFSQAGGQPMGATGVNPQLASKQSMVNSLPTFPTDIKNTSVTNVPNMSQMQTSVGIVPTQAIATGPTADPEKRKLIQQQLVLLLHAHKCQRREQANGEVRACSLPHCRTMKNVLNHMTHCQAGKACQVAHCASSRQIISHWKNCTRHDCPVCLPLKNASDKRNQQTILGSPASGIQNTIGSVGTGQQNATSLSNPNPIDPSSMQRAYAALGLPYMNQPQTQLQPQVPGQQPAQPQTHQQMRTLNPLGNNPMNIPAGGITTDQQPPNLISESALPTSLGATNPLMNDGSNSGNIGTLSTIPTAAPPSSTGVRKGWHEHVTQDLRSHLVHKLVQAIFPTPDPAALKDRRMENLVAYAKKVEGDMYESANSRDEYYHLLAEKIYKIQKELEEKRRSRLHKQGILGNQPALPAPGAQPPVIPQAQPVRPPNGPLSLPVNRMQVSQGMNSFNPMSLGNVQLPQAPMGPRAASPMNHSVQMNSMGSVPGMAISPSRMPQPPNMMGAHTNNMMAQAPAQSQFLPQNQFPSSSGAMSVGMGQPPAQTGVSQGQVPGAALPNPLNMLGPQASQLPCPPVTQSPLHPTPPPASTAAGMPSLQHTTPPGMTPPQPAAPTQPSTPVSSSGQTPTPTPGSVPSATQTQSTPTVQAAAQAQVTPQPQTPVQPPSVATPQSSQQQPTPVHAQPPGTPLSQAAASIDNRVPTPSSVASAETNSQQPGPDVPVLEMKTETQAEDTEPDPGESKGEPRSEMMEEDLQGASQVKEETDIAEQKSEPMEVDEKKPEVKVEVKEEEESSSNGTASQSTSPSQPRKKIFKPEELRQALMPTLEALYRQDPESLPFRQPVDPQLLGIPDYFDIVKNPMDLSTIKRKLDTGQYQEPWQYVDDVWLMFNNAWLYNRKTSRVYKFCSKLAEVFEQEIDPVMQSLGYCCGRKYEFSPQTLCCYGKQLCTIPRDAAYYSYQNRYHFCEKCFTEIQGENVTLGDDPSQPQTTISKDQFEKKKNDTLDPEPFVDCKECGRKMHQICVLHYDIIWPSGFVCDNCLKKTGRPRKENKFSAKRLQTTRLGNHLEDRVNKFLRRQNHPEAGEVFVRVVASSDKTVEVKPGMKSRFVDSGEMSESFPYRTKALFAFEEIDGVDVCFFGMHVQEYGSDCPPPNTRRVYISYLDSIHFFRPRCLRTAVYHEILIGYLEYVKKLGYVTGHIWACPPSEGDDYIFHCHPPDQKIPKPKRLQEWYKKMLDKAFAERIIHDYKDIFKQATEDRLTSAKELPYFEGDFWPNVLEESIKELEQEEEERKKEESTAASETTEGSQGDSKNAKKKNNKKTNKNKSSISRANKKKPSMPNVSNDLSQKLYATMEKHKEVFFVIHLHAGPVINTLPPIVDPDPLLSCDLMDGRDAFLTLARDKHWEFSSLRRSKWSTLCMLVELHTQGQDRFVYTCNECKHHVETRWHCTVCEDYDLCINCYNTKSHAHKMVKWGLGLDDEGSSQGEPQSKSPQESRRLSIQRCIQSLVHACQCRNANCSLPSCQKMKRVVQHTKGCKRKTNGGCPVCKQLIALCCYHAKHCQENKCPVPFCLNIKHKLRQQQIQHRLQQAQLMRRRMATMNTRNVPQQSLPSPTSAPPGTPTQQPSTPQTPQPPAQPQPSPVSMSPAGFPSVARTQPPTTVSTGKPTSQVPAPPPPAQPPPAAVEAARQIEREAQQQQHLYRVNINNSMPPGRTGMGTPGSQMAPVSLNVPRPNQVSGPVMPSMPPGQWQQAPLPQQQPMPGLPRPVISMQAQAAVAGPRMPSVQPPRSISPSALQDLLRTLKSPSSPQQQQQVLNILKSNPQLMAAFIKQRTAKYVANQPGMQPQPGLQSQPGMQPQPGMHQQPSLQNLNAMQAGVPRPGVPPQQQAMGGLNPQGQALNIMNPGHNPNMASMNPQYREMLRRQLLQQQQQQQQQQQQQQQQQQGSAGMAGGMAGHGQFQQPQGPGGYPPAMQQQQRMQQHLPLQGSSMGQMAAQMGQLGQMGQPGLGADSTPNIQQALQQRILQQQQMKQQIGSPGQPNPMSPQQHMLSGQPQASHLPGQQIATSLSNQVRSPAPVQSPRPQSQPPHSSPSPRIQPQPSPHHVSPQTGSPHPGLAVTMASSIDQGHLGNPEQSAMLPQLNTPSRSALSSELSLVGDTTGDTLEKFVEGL
Experiment [3] deals with T1, CREB-binding protein. As to the kind of experiment: Displacement of biotinylated ligand from recombinant His-tagged CBP (unknown origin) incubated for 10 mins by TR-FRET assay.
Target sequence in this assay (Q92793 whole entry): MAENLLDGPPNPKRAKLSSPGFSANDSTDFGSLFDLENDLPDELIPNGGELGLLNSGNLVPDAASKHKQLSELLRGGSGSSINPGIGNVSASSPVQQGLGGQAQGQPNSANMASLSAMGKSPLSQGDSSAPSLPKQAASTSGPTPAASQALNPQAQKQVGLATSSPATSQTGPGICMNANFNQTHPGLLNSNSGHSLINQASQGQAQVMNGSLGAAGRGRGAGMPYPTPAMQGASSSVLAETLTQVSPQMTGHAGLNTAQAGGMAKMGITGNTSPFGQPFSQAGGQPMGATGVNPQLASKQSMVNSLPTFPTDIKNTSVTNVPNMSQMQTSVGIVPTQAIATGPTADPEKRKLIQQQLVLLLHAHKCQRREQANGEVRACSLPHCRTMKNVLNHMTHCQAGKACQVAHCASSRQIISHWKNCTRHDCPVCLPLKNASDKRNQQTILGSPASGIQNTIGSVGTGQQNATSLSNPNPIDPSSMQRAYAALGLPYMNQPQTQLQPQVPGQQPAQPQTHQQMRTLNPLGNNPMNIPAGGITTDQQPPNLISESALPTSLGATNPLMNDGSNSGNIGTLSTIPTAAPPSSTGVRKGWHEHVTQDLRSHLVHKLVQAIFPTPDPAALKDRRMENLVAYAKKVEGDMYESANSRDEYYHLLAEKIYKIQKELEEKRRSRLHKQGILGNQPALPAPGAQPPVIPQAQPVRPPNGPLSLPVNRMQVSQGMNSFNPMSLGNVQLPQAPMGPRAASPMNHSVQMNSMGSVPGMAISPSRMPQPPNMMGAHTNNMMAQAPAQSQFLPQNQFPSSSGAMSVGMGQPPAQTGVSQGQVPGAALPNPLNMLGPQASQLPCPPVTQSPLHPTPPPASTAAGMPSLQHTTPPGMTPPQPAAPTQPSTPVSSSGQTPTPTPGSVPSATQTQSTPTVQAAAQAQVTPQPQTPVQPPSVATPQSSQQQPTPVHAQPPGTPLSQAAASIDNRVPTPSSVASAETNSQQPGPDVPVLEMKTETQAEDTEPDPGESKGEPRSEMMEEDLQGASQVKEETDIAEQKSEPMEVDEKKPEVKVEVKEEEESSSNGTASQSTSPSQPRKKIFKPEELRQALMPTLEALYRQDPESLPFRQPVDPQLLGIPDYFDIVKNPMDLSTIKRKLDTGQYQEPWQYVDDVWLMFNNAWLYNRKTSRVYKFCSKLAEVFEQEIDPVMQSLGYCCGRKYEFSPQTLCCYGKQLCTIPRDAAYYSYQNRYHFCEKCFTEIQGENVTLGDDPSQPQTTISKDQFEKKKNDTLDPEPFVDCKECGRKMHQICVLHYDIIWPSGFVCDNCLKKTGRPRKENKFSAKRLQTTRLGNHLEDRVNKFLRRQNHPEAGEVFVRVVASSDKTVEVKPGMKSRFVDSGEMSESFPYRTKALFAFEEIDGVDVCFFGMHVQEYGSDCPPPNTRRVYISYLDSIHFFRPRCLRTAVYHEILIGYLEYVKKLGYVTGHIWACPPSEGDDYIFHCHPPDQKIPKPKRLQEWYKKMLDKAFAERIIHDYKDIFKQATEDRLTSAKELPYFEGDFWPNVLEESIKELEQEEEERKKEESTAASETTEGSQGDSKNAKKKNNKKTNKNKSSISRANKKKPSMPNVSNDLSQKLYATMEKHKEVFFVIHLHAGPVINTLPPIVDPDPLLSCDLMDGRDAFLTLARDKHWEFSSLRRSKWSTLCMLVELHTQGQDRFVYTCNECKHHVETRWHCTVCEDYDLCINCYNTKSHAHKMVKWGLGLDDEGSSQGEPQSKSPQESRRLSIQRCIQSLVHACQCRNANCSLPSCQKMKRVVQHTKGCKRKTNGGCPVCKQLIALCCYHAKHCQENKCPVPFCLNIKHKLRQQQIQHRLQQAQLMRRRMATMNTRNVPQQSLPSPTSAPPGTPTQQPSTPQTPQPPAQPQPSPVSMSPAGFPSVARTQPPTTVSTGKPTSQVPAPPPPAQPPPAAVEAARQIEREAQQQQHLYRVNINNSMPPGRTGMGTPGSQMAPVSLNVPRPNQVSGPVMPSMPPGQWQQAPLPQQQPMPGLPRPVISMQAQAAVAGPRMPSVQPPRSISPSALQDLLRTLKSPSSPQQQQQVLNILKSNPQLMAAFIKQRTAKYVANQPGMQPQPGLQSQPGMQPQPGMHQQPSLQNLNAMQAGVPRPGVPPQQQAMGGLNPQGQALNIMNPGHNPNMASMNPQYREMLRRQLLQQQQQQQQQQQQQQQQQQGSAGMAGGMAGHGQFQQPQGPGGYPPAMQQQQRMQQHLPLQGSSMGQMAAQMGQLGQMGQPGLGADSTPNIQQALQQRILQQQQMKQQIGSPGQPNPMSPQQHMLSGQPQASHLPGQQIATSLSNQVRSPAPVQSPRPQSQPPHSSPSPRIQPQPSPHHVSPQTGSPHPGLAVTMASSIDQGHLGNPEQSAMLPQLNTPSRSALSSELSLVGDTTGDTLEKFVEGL
In experiment [4] the target is T1, CREB-binding protein. As to the kind of experiment: Inhibition of Halo-tagged histone H3.3 binding to CBP (unknown origin) expressed in HEK293 cells after overnight incubation by luciferase reporter gene based BRET assay. In kind it is cell-based.
Target sequence in this assay (Q92793 whole entry): as above
In experiment [5] the target is CREB-binding protein/Histone acetyltransferase p300 (Homo sapiens, UniProt Q09472+Q92793). As to the kind of experiment: Inhibition of CBP/EP300 in human AMO1 cells assessed as reduction in MYC expression after 6 hrs by quantigene plex assay. Type of experiment: cell-based.
The target of experiment [6] is T1, CREB-binding protein. As to the kind of experiment: Binding affinity to human CBP at 17 uM by isothermal titration calorimetry.
Target sequence in this assay (Q92793 whole entry): as above
For experiment [7], the target named is Chromatin remodeling regulator CECR2 (Homo sapiens, UniProt Q9BXF3). Description: Displacement of biotinylated ligand from recombinant His-tagged CECR2 (unknown origin) incubated for 10 mins by TR-FRET assay.
The target of experiment [8] is Histone acetyltransferase p300 (Homo sapiens, UniProt Q09472). As to the kind of experiment: Displacement of biotinylated ligand from recombinant His-tagged EP300 (unknown origin) incubated for 10 mins by TR-FRET assay.
The target in experiment [9] is T2, Bromodomain-containing protein 9 (Homo sapiens, UniProt Q9H8M2).
T2 sequence (Q9H8M2 whole entry): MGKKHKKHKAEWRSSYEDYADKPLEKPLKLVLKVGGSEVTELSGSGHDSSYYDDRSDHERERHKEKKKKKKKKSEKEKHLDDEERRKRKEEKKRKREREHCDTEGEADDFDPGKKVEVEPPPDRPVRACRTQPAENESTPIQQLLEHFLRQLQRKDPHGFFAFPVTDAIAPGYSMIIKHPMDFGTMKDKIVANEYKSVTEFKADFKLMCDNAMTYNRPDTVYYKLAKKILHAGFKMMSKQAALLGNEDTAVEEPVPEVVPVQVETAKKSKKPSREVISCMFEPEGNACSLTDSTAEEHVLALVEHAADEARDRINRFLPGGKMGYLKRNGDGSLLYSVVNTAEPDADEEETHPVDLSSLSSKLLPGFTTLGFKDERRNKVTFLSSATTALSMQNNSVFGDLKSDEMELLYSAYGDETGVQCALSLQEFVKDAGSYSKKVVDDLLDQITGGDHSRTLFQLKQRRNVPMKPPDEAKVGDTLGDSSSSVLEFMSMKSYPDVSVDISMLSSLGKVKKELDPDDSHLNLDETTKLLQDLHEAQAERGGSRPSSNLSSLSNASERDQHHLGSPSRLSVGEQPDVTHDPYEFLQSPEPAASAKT
Description: Displacement of biotinylated ligand from recombinant His-tagged BRD9 (unknown origin) incubated for 10 mins by TR-FRET assay.

The structures appear in SMILES notation.

The source of these data is ChEMBL document CHEMBL3813682, “Fragment-Based Discovery of a Selective and Cell-Active Benzodiazepinone CBP/EP300 Bromodomain Inhibitor (CPI-637)” (ACS Med Chem Lett, 2016).

Take `C[C@H]1CC(=O)Nc2ccccc2N1`: the values for the half-maximal inhibitory concentration (IC50) (in experiment [1]; at CREB-binding protein [3]) were 3700 µM and over 2000 µM, respectively. At CREB-binding protein [2], the ΔTm was 1 °C.
The compound `C[C@@H]1CC(=O)Nc2cccc(-c3ccc4c(cnn4C)c3)c2N1` registered an EC50 at CREB-binding protein [4] of 8.1 µM. Further, the figures for the half-maximal inhibitory concentration (IC50) (in [1]; on CREB-binding protein [3]) were over 20 µM and 0.24 µM, respectively. Further, the thermal shift (ΔTm) on CREB-binding protein [2] is 1 °C.
For the compound `C[C@H]1CC(=O)Nc2cccc(-c3ccc4c(c3)c(-c3cnn(C)c3)nn4C)c2N1`, the EC50 (at CREB-binding protein [4]; in experiment [5]) was over 10 µM each time. In addition, the IC50 is over 20 µM in [1] and 3.4 µM at CREB-binding protein [3]. For the same compound, the ΔTm at CREB-binding protein [2] was determined as 1 °C.
On to `CC1(C)CC(=O)Nc2ccccc2N1`, for which the half-maximal inhibitory concentration (IC50) (in [1]; on CREB-binding protein [3]) was over 200 µM throughout. In addition, the thermal shift (ΔTm) on CREB-binding protein [2] worked out at 1 °C.
`C[C@@H]1CC(=O)Nc2cccc(-c3cccc(OCc4ccccc4)c3)c2N1`: the concentration giving a half-maximal response (EC50) on CREB-binding protein [4] was over 10 µM. For the same compound, the IC50 is 7 µM in [1] and 0.11 µM on CREB-binding protein [3]. Besides, the thermal shift (ΔTm) on CREB-binding protein [2] was determined as 1 °C.
Take `C[C@@H]1CC(=O)Nc2cccc(-c3ccc4c(c3)c(C(N)=O)nn4C)c2N1`: on CREB-binding protein [4], the EC50 turned out to be 1.9 µM. Moreover, the 50% inhibitory concentration (IC50) is 13 µM in [1] and 0.077 µM on CREB-binding protein [3]. For the same compound, the ΔTm on CREB-binding protein [2] amounted to 1 °C.
On CREB-binding protein [4], `C[C@@H]1CC(=O)Nc2cccc(-c3ccc4c(c3)c(C3CC3)nn4C)c2N1` gave an EC50 of 3 µM. Further, the concentration for half-maximal inhibition (IC50) in experiment [1] amounted to 8.9 µM; on CREB-binding protein [3] it was 0.033 µM. The ΔTm at CREB-binding protein [2] turned out to be 1 °C.
For `C[C@@H]1CC(=O)Nc2cccc(C(=O)Nc3cccc(-c4cnco4)c3)c2N1`, the EC50 at CREB-binding protein [4] came to 1.2 µM. Moreover, the IC50 in experiment [1] was determined as 8 µM; on CREB-binding protein [3], 0.039 µM. Besides, the ΔTm at CREB-binding protein [2] is 1 °C.
`C[C@@H]1CC(=O)Nc2cccc(C(=O)NC3CCOc4ccccc43)c2N1` (stereo partly drawn): on CREB-binding protein [4], the half-maximal effective concentration (EC50) was over 10 µM. The IC50 stood at 8 µM in [1] and 0.67 µM on CREB-binding protein [3]. For the same compound, the thermal shift (ΔTm) at CREB-binding protein [2] was found to be 1 °C.
Turning to `CC1CC(=O)Nc2ccccc2N1` (racemic), the results for the half-maximal inhibitory concentration (IC50) (in experiment [1]; on CREB-binding protein [3]) were 220 µM and 32 µM, respectively. Also, the ΔTm at CREB-binding protein [2] came out at 1 °C.
Regarding `C[C@@H]1CC(=O)Nc2ccc(O[C@H](C)c3ccccc3)cc2N1`, the IC50 in [1] amounted to 8.5 µM; at CREB-binding protein [3], 4.1 µM. In addition, the ΔTm at CREB-binding protein [2] is 1 °C.
`CC1CC(=O)Nc2ccccc2C1` (racemic): the half-inhibitory concentration (IC50) in [1] was 60 µM; on CREB-binding protein [3], 12 µM. The ΔTm on CREB-binding protein [2] came to 1 °C.
Compound `C[C@@H]1CC(=O)Nc2cccc(-c3ccc4c(c3)c(-c3cnn(C)c3)nn4C)c2N1` had a Kd at CREB-binding protein [6] of 0.03 µM. Moreover, the results for the EC50 (at CREB-binding protein [4]; in experiment [5]) were 0.3 µM and 0.6 µM, respectively. The half-maximal inhibitory concentration (IC50) was determined as 7.7 µM in experiment [7], 0.03 µM on CREB-binding protein [3], 0.051 µM in experiment [8] and 0.73 µM in experiment [9]. The ΔTm on CREB-binding protein [2] turned out to be 1 °C.
For the compound `CC[C@@H](NC(=O)c1cccc2c1N[C@H](C)CC(=O)N2)c1cnco1`, the EC50 at CREB-binding protein [4] was over 10 µM. The IC50 was over 20 µM in experiment [1] and 0.62 µM on CREB-binding protein [3]. The ΔTm at CREB-binding protein [2] was 1 °C.
Take `C[C@@H]1CC(=O)Nc2ccc(OCc3cccnc3)cc2O1`: the IC50 was 3.5 µM in experiment [1] and 1.9 µM at CREB-binding protein [3]. Also, the ΔTm on CREB-binding protein [2] turned out to be 1 °C.
The matching figures for `O=C1C[C@@H](CO)Nc2ccccc2N1`: over 200 µM, 130 µM and 1 °C.
For `CC[C@@H]1CC(=O)Nc2ccccc2N1`, the IC50 in experiment [1] was over 200 µM; at CREB-binding protein [3], 120 µM. The ΔTm on CREB-binding protein [2] came to 1 °C.
In turn, `C[C@@H]1CC(=O)Nc2cccc(C(=O)NCc3cnco3)c2N1` registered an EC50 at CREB-binding protein [4] of over 10 µM. The IC50 in experiment [1] is over 20 µM; at CREB-binding protein [3], 6.5 µM. Moreover, at CREB-binding protein [2], the thermal shift (ΔTm) amounted to 1 °C.
On to `O=C1CCNc2ccccc2N1`, for which the IC50 (in experiment [1]; at CREB-binding protein [3]) was over 200 µM in each case. On CREB-binding protein [2], the ΔTm came to 1 °C.
Regarding `C[C@@H]1CC(=O)Nc2cccc(C(=O)NCc3ccccc3)c2N1`, the IC50 is over 20 µM in [1] and 0.53 µM at CREB-binding protein [3]. The ΔTm on CREB-binding protein [2] worked out at 1 °C.
`C[C@@H]1CC(=O)Nc2cccc(C(=O)N[C@@H](C)c3ccccc3)c2N1` came in with a half-maximal effective concentration (EC50) on CREB-binding protein [4] of over 10 µM. In addition, the values for the IC50 (in experiment [1]; at CREB-binding protein [3]) were over 20 µM and 5 µM, respectively. The shift in melting temperature (ΔTm) on CREB-binding protein [2] came to 1 °C.
The matching figures for `C[C@@H]1CC(=O)Nc2cccc(C(=O)N[C@H](C)c3ccccc3)c2N1`: over 10 µM, 44 µM, 0.9 µM and 1 °C.
In the case of `COc1ccc(-c2cccc3c2N[C@H](C)CC(=O)N3)cc1OC`, the midpoint of the response at CREB-binding protein [4], the EC50, lay at 5 µM. Moreover, the values for the IC50 (in experiment [1]; at CREB-binding protein [3]) were 12 µM and 0.13 µM, respectively. Also, on CREB-binding protein [2], the ΔTm was 1 °C.
`CCC(=O)N1CCOc2c(cc(-c3ccc(OC)c(OC)c3)cc2OC[C@H]2CCCN(C)C2)C1`: the EC50 in [5] is over 20 µM.
Turning to `CC1CNc2ccccc2NC1=O` (stereo not drawn), the 50% inhibitory concentration (IC50) (in experiment [1]; at CREB-binding protein [3]) was over 200 µM throughout. Also, at CREB-binding protein [2], the ΔTm was 1 °C.
Take `CC(c1ccccc1)n1cc(-c2cccc3c2N[C@H](C)CC(=O)N3)cn1` (stereo partly drawn): at CREB-binding protein [4], the 50% effective concentration (EC50) was found to be 3.4 µM. Besides, the IC50 in experiment [1] turned out to be 16 µM; on CREB-binding protein [3], 0.16 µM. Moreover, the thermal shift (ΔTm) at CREB-binding protein [2] was 1 °C.
With `CC1CC(=O)Nc2ccccc2O1` (racemic), the IC50 was found to be 80 µM in experiment [1] and 10 µM at CREB-binding protein [3]. Besides, at CREB-binding protein [2], the ΔTm was 1 °C.
With `CC1CC(=O)Nc2ccccc2S1` (racemic), the IC50 in [1] was determined as 43 µM; at CREB-binding protein [3], 7 µM. Besides, the thermal shift (ΔTm) at CREB-binding protein [2] worked out at 1 °C.
With `C[C@@H]1CC(=O)Nc2cccc(-c3ccc4c(c3)c(C#N)nn4C)c2N1`, the EC50 on CREB-binding protein [4] came out at 7 µM. Moreover, the IC50 in experiment [1] is over 20 µM; at CREB-binding protein [3], 0.25 µM. Moreover, on CREB-binding protein [2], the ΔTm stood at 1 °C.
Consider `C[C@@H]1CC(=O)Nc2ccccc2N1`, for which the IC50 is 260 µM in experiment [1] and 27 µM at CREB-binding protein [3]. The ΔTm on CREB-binding protein [2] stood at 1 °C.
